# Measurements published in US20220169632A1, “METHODS AND MATERIALS FOR INCREASING OR MAINTAINING NICOTINAMIDE MONONUCLEOTIDE ADENYLYL TRANSFERASE-2 (NMNAT2) POLYPEPTIDE LEVELS” (University of Pittsburgh - Of the Commonwealth System of …, priority 2019, published 2022).
# Legend:
# NMNAT2 [1] = assay: NMNAT2-Hibit nano-luciferase activity in transfected U87MG cells, 5 μM, 48 hours; format: cell-based; conditions: NMNAT2-Hibit luciferase plasmid, 48 hours (Table D)
# Experimental: Selected compounds were tested in vitro. Briefly, U87MG cells were transfected with NMNAT2-Hibit luciferase plasmid. Cells were treated with test compound at 5 μM for 48 hours. Cells were then collected and assayed for nano-luciferase activity.
# NMNAT2 [2] = assay: NMNAT2-Hibit nano-luciferase activity in transfected U87MG cells, 25 μM, 24 hours; format: cell-based; conditions: NMNAT2-Hibit luc plasmid; for C: Compound efficacy for NMNAT2 activation; increase in NMNAT2 luciferase activity: 24 hours (Table C); for B: compound efficacy (IC50) for NMNAT2 activation; increase in NMNAT2 luciferase activity: 24 hours (Table B)
# Experimental: Selected compounds were tested in vitro. Briefly, U87MG cells were transfected with NMNAT2-Hibit luc plasmid. Cells were treated with a test compound at 25 μM for 24 hours. Cells were then collected and assayed for nano-luciferase activity.
SMILES,D: compound efficacy for NMNAT2 activation; increase in NMNAT2 luciferase activity (NMNAT2 [1]),B: compound efficacy (IC50) for NMNAT2 activation; increase in NMNAT2 luciferase activity (NMNAT2 [2]),further results
CCCNC(=O)CCCc1cn(Cc2ccc(C)cc2)c2ccccc12 [BC181233],+ (“+” <20% increase in NMNAT2 luciferase activity.),,
Cc1ccc(Cn2cc(C(CC(=O)NCc3ccco3)C(C)C)c3ccccc32)cc1 (stereo not shown) [BC181265],+ (“+” <20% increase in NMNAT2 luciferase activity.),,
Cc1ccc(Cn2cc(CCCC(=O)NC(C)C)c3ccccc32)cc1 [BC181232],+ (“+” <20% increase in NMNAT2 luciferase activity.),,
Cc1ccccc1Cn1cc(CCC(=O)NCc2ccco2)c2ccccc21 [BC181243],++ (“++” >20% and <100% increase in NMNAT2 luciferase activity.),,
COc1ccc(C(CC(=O)NCc2ccco2)c2cn(Cc3ccc(C)cc3)c3ccccc23)cc1 (stereo not shown) [BC181261],++ (“++” >20% and <100% increase in NMNAT2 luciferase activity.),,
O=C(Cn1cc(C(=O)C2CCCCC2)c2ccccc21)NCCc1ccccc1 [BC181222],++ (“++” >20% and <100% increase in NMNAT2 luciferase activity.),,
CCn1cc(CCCC(=O)NCc2ccc(F)cc2)c2ccccc21 [BC181229],++ (“++” >20% and <100% increase in NMNAT2 luciferase activity.),,
CC1CCCC(C)N1C(=O)Cn1cc(C(=O)c2ccccc2)c2ccccc21 (stereo not shown) [BC181219],++ (“++” >20% and <100% increase in NMNAT2 luciferase activity.),,
O=C(Cn1cc(C(=O)c2ccccc2)c2ccccc21)NCC1=CC=CC1 [BC181207],++ (“++” >20% and <100% increase in NMNAT2 luciferase activity.),,
CCN(CC)C(=O)Cn1cc(C(=O)c2ccccc2)c2ccccc21 [BC181217],+ (“+” <20% increase in NMNAT2 luciferase activity.),,
CC1CCN(C(=O)Cn2cc(C(=O)c3ccccc3)c3ccccc32)CC1 [BC181205],+ (“+” <20% increase in NMNAT2 luciferase activity.),,
Cc1ccccc1Cn1cc(CCC(=O)NCC2=CC=CC2)c2ccccc21 [BC181244],++ (“++” >20% and <100% increase in NMNAT2 luciferase activity.),,
Cc1ccc(C)c(Cn2cc(CCC(=O)NCC3=CC=CC3)c3ccccc32)c1 [BC181246],++ (“++” >20% and <100% increase in NMNAT2 luciferase activity.),,
O=C(Cn1cc(C(=O)C(F)(F)F)c2ccccc21)NCc1ccccc1 [BC181201],+++ (“+++” >100% increase in NMNAT2 luciferase activity.),,
Cc1ccc(C)c(NC(=O)Cn2cc(C(=O)c3ccccc3)c3ccccc32)c1 [BC181211],++ (“++” >20% and <100% increase in NMNAT2 luciferase activity.),,
COc1ccc(NC(=O)Cn2cc(C(=O)c3ccccc3)c3ccccc32)cc1 [BC181213],+ (“+” <20% increase in NMNAT2 luciferase activity.),,
O=C(Cn1cc(C(=O)C2=CC=CC2)c2ccccc21)NCc1ccccc1 [BC181204],++ (“++” >20% and <100% increase in NMNAT2 luciferase activity.),,
O=C(Cn1cc(C(=O)C2CC2)c2ccccc21)NCc1ccccc1 [BC181203],++ (“++” >20% and <100% increase in NMNAT2 luciferase activity.),,
O=C(Cn1cc(C(=O)c2ccccc2)c2ccccc21)NCc1ccc2c(c1)OCCCO2 [BC181257],+ (“+” <20% increase in NMNAT2 luciferase activity.),,
CCN(CC)C(=O)C(=O)c1cn(CC(=O)NCCc2ccccc2)c2ccccc12 [BC181227],+ (“+” <20% increase in NMNAT2 luciferase activity.),,
O=C(Cn1cc(C(=O)c2ccco2)c2ccccc21)NCc1ccccc1 [BC181223],+ (“+” <20% increase in NMNAT2 luciferase activity.),,
Cc1ccc(Cn2cc(CCCC(=O)NCc3ccco3)c3ccccc32)cc1 [BC181231],++ (“++” >20% and <100% increase in NMNAT2 luciferase activity.),,
Cc1ccc(CNC(=O)Cn2c(=O)c(=O)n(C)c3ccccc32)o1 [Compound 181137],,,C: Compound efficacy for NMNAT2 activation; increase in NMNAT2 luciferase activity (NMNAT2 [2]): + (“+” <20% increase in NMNAT2 luciferase activity.)
Cc1ccc(CNC(=O)Cn2c(-c3cccs3)cc3cc(F)ccc32)o1 [Compound 181119],,,C: Compound efficacy for NMNAT2 activation; increase in NMNAT2 luciferase activity (NMNAT2 [2]): + (“+” <20% increase in NMNAT2 luciferase activity.)
O=C(NCc1noc2ccccc12)Nc1ccc(F)c(Cl)c1 [Compound 181005],,+ (“+” <20% increase in NMNAT2 luciferase activity.),
Cc1ccc2onc(CNC(=O)Nc3cccc(C(F)(F)F)c3)c2c1 [Compound 181037],,+ (“+” <20% increase in NMNAT2 luciferase activity.),

SMILES,D: compound efficacy for NMNAT2 activation; increase in NMNAT2 luciferase activity (NMNAT2 [1]),B: compound efficacy (IC50) for NMNAT2 activation; increase in NMNAT2 luciferase activity (NMNAT2 [2]),further results
CCn1c(=O)c(=O)n(CC(=O)NCc2ccc(C)o2)c2ccccc21 [Compound 181139],,,C: Compound efficacy for NMNAT2 activation; increase in NMNAT2 luciferase activity (NMNAT2 [2]): + (“+” <20% increase in NMNAT2 luciferase activity.)
COc1ccc(CNC(=O)Cn2c(C)cc(C)c(C#N)c2=O)cc1 [Compound 181124],,,C: Compound efficacy for NMNAT2 activation; increase in NMNAT2 luciferase activity (NMNAT2 [2]): + (“+” <20% increase in NMNAT2 luciferase activity.)
CC(=O)c1cccc(NC(=O)NCc2noc3ccccc23)c1 [Compound 181031],,+ (“+” <20% increase in NMNAT2 luciferase activity.),
Cc1ccc2onc(CNC(=O)NC3CCCC(C)C3C)c2c1 (stereo not shown) [Compound 181046],,+ (“+” <20% increase in NMNAT2 luciferase activity.),
CCc1cccc(NC(=O)NCc2noc3ccc(C)cc23)c1 [Compound 181067],,+ (“+” <20% increase in NMNAT2 luciferase activity.),
Cc1cc(C)n(CC(=O)Nc2ccc(C(=O)NCc3ccco3)cc2)c(=O)c1C#N [Compound 181133],,,C: Compound efficacy for NMNAT2 activation; increase in NMNAT2 luciferase activity (NMNAT2 [2]): + (“+” <20% increase in NMNAT2 luciferase activity.)
Cc1c(C=O)c2ccccc2n1CC(=O)NCc1ccco1 [Compound 181110],,,C: Compound efficacy for NMNAT2 activation; increase in NMNAT2 luciferase activity (NMNAT2 [2]): + (“+” <20% increase in NMNAT2 luciferase activity.)
Cc1ccc2onc(CNC(=O)NCc3ccccn3)c2c1 [Compound 181050],,+ (“+” <20% increase in NMNAT2 luciferase activity.),
Cc1ccc2onc(CNC(=O)NCc3ccc(F)cc3)c2c1 [Compound 181047],,++ (“++” >20% and <100% increase in NMNAT2 luciferase activity.),
CN(C(=O)NCc1noc2ccccc12)c1ccccc1Cl [Compound 181017],,+ (“+” <20% increase in NMNAT2 luciferase activity.),
O=C(NCc1noc2ccccc12)Nc1ccc(Cl)cc1 [Compound 181028],,+ (“+” <20% increase in NMNAT2 luciferase activity.),
Cc1ccc2onc(CNC(=O)NCc3cccnc3)c2c1 [Compound 181051],,+ (“+” <20% increase in NMNAT2 luciferase activity.),
CCCN(C(=O)NCc1noc2ccc(C)cc12)c1ccc(Cl)c(Cl)c1 [Compound 181061],,+ (“+” <20% increase in NMNAT2 luciferase activity.),
Cc1cc(C)n(CC(=O)NCC2=CC=CC2)c(=O)c1C#N [Compound 181129],,,C: Compound efficacy for NMNAT2 activation; increase in NMNAT2 luciferase activity (NMNAT2 [2]): + (“+” <20% increase in NMNAT2 luciferase activity.)
O=C(NCc1ccccc1)NCc1noc2ccccc12 [Compound 181036],,+ (“+” <20% increase in NMNAT2 luciferase activity.),
O=C(Cn1ccc2ccccc21)NCc1ccco1 [Compound 181147],,,C: Compound efficacy for NMNAT2 activation; increase in NMNAT2 luciferase activity (NMNAT2 [2]): + (“+” <20% increase in NMNAT2 luciferase activity.)
O=C(Cn1cc(C(=O)C(F)(F)F)c2cc(Br)ccc21)NCc1ccco1 [Compound 181103],,,C: Compound efficacy for NMNAT2 activation; increase in NMNAT2 luciferase activity (NMNAT2 [2]): + (“+” <20% increase in NMNAT2 luciferase activity.)
Cc1ccc2onc(CNC(=O)Nc3ccccc3C)c2c1 [Compound 181074],,+ (“+” <20% increase in NMNAT2 luciferase activity.),
CCc1ccc(NC(=O)NCc2noc3ccc(C)cc23)cc1 [Compound 181052],,+ (“+” <20% increase in NMNAT2 luciferase activity.),
CSc1ccc(CCNC(=O)NCc2noc3ccc(C)cc23)cc1 [Compound 181089],,++ (“++” >20% and <100% increase in NMNAT2 luciferase activity.),
Cn1cc(C(CC(=O)NCc2ccco2)c2cccc(F)c2)c2ccccc21 (stereo not shown) [Compound 181143],,,C: Compound efficacy for NMNAT2 activation; increase in NMNAT2 luciferase activity (NMNAT2 [2]): + (“+” <20% increase in NMNAT2 luciferase activity.)
O=C(NCc1noc2ccccc12)Nc1cccc(Cl)c1 [Compound 181001],,+ (“+” <20% increase in NMNAT2 luciferase activity.),
Cc1ccc(NC(=O)NCc2noc3ccccc23)c(Cl)c1 [Compound 181021],,+ (“+” <20% increase in NMNAT2 luciferase activity.),
Cc1ccc2onc(CNC(=O)NCc3ccccc3Cl)c2c1 [Compound 181081],,+ (“+” <20% increase in NMNAT2 luciferase activity.),
Cc1ccc2onc(CNC(=O)Nc3ccc(F)c(Cl)c3)c2c1 [Compound 181040],,+ (“+” <20% increase in NMNAT2 luciferase activity.),
COc1ccc(NC(=O)NCc2noc3ccc(C)cc23)cc1 [Compound 181078],,+ (“+” <20% increase in NMNAT2 luciferase activity.),
